# Measured values from patent publication US10406243B2, “Methods of treatment comprising a polyrotaxane and medicinal composition” (National University Corporation Tokyo Medical and Dental …, priority 2013, dated 2019).
# Experiments:
# NPC1 cells [1] = experiment: LC3 and p62 expressions by Western blotting (Test Example 9); format: cell-based, human
# Method: The expressions of LC3 and p62 in the following cells were assayed by Western blotting as follows.
# (§1) The cells were seeded on a 12-well plate (Nunc) (cell count: 1×10^5 cells/well), and incubated at 37° C. under a 5% CO2 atmosphere for one day, followed by the addition of the following samples and another 24-hour incubation.
# (§2) After the culturing, the cells were washed with PBS, and then 150 μL of RIPA buffer (Wako) containing 1% protease inhibitor cocktail (Nacalai Tesque) and 1% Phosphatase inhibitor cocktail (Nacalai Tesque) was added, and the cells were lysed by shaking for 30 minutes. The cell lysate was centrifuged for 10 minutes at 15,000 rpm, and the supernatant was collected.
# (§3) 10 μL of the supernatant and 2.5 μL of Laemmli buffer (Bio-Rad) were mixed, and applied to a 12% acrylamide gel. Then, electrophoresis was performed at 150∇ for 45 minutes. Then, proteins were transferred to a polyvinylidene fluoride (PVDF) membrane (Bio-Rad) using trans-blot Turbo Blotting System (Bio-Rad). Then, blocking was carried out with 5% skim milk solution (Wako) for an hour.
# After the blocking treatment, PVDF membranes were treated at 4° C. for one day with an antibody against LC3 which is an indicator of autophagy (purchased from MBL), an antibody against p62/SQSTM1 which is a selective autophagy substrate (purchased from MBL), and an anti-β-actin antibody (Sigma-Aldrich), each diluted with 1% skim milk solution.
# After three washes with PBS, the PVDF membranes were treated for 1 hour at room temperature with HRP-conjugated goat anti-rabbit IgG diluted in 1% skim milk solution.
# After three washes with PBS, the PVDF membranes were treated with Pierce Western Blotting Substrate, and the images were taken with ImageQuant LAS 500 system (GE Healthcare Bioscience).
# For comparison, the following cases were also examined in a similar manner: a case where NHDF cells were used and none of the samples were added; a case where NHDF cells were used and Bafilomycin A1 (hereinafter, referred to as “Baf A”) was added instead of the sample; a case where NPC1 cells were used and none of the samples were added; and a case where NPC1 cells were used and Baf A was added instead of the sample.
# (§4) Each of the relative expression levels was determined from the intensity of Western blot band. […]
# [2] = test system: NPC1 cells (human dermal fibroblasts derived from a Niemann-Pick type C disease patient); experiment: Accumulation of cholesterol, filipin staining observed by confocal microscope (Test Example 2); format: cell-based; conditions: equivalent to 100 μM of cyclodextrin, 24 hours
# Method: Normal human dermal fibroblasts (hereinafter, referred to as “NHDF” or “NHDF cells”; obtained from Coriell Institute; number: GM05659) and human dermal fibroblasts derived from a Niemann-Pick type C disease patient (hereinafter, referred to as “NPC1” or “NPC1 cells”; obtained from Coriell Institute; number: GM03123) were used as follows to examine the cellular accumulation of cholesterol.
# After the incubation, the cells were fixed with 4% paraformaldehyde, and following the addition of filipin (Polysciences) in PBS adjusted to 100 μg/mL, were allowed to stand for 45 minutes at room temperature. After washing the cells three times with PBS, the localization of cholesterol was observed by using a confocal laser scanning microscope, FluoView FV10i (Olympus). Moreover, the amount of intracellular cholesterol accumulation was determined.
# In each image, the part shown in white indicates cholesterol. The amount added of each sample is equivalent to 100 μM of cyclodextrin.
# NPC1 cells [3] = experiment: Cholesterol removal effect, dose-response (Test Examples 5, 6, 7-1); format: cell-based, human; conditions: 24 hours, concentration as cyclodextrin
# Method: Then, the cells were washed twice with phosphate-buffered solution, and 0.25% trypsin-EDTA solution (Gibco) was added to each well to peel the cells. The cells were collected into a 1.5 mL tube, and washed twice with phosphate buffered saline. Then, cell lysis solution (including 50 mM phosphate buffer solution, 500 mM sodium chloride, 25 mM cholic acid, and 0.5% Triton X-100) was added to each tube to lyse the cells.
# In each cell lysate, the total cholesterol was quantified by Amplex Red Cholesterol Assay Kit (Invitrogen), and the total protein was quantified by micro BCA Protein Assay Kit (Thermo Fisher Scientific). The total cellular cholesterol content is shown as total cholesterol content (nmol)/total protein content (mg).
# Similar assays to Test Example 5 were performed except that the following samples were used in order to investigate how the type of degradable linkage in polyrotaxane influences to cholesterol removal from NPC1.
# Similar assays to Test Example 5 were performed except that the following samples were used in order to investigate how the type of functional group introduced into cyclodextrins in polyrotaxane influences to cholesterol removal from NPC1.
# [4] = test system: NPC1 cells (human dermal fibroblasts derived from a Niemann-Pick type C disease patient); experiment: Quantification of intracellular cholesterol accumulation, Amplex Red Cholesterol Assay Kit (Test Example 2); format: cell-based; conditions: equivalent to 100 μM of cyclodextrin, 24 hours
# Method: The quantification of the amount of intracellular cholesterol accumulation was carried out as follows.
# After the incubation the cells were lysed with cell lysis buffer to obtain cell lysates, and the intracellular cholesterol was determined by Amplex Red Cholesterol Assay Kit (Invitrogen) while the total cellular protein content was determined with Micro BCA Protein Assay Kit (Thermo Fisher Scientific). The total intracellular cholesterol content is shown as total cholesterol content (nmol)/total protein content (mg).
# In FIG. 9, in order from the left, the results on the following are shown: “the case where NPC1 cells were used and none of the samples were added (non-treated)”, “the case where NPC1 cells were used and HP-β-CD was added as a sample (HP-β-CD added)”, “the case where NPC1 cells were used and DM-β-CD was added as a sample (DM-β-CD added)”, “the case where NPC1 cells were used and HE-SS-PRX was added as a sample (HE-SS-PRX added)”, “the case where NPC1 cells were used and HE-ace-PRX was added as a sample (HE-ace-PRX added)”, “the case where NPC1 cells were used and HE-PRX was added as a sample (HE-PRX added)”, and “the case where NPC1 cells were used and HE-SS-PRX was added as a sample (HE-SS-PRX added)”, and “the case where NHDF cells were used and none of the samples were added (non-treated)”. The amount added of each sample is equivalent to 100 μM of cyclodextrin.
# NPC1 cells [5] = experiment: Observation of autolysosome formation, mRFP-EGFP-LC3 (Test Example 10); format: cell-based, human; conditions: 24 hours, HP-β-CD 10 mM, HEE-SS-PRX equivalent to 1 mM cyclodextrin
# [6] = test system: NPC disease patient-derived cells; conditions: cited from earlier work
# [7] = test system: Fabry disease patient-derived dermal fibroblasts; experiment: LC3-II expression by Western blotting (Test Example 9); format: cell-based, human; conditions: HP-β-CD 10 mM, HEE-SS-PRX 1 mM
# Method: (4) Fabry disease patient-derived dermal fibroblasts (obtained from Coriell Institute; number: GM00107)
# as §1, §2
# as §3, with “hour. […]” for “hour.”
# as §4
# [8] = test system: Npc1-deficient mice (Npc1−/− mice); conditions: cited from earlier work
# NPC1 cells [9] = experiment: Fusion of autophagosomes and lysosomes, co-localization of mRFP-LC3 and LAMP1 (Test Example 11); format: cell-based, human; conditions: 24 hours, HP-β-CD 10 mM, HEE-SS-PRX equivalent to 1 mM cyclodextrin
# [10] = test system: NPC disease patient-derived NPC2 mutant dermal fibroblasts; experiment: LC3-II expression by Western blotting (Test Example 9); format: cell-based, human; conditions: NPC2-mutated fibroblasts; HP-β-CD 10 mM, HEE-SS-PRX 1 mM
# Method: (3) NPC disease patient-derived NPC2 mutant dermal fibroblasts (obtained from Coriell Institute; number: GM18455)
# as §1, §2
# as §3, with “hour. […]” for “hour.”
# as §4
# NPC1 cells [11] = experiment: Observation of autophagosomes by LC3 immunostaining (Test Example 8); format: cell-based, human; conditions: 24 hours, HP-β-CD 10 mM, HEE-SS-PRX equivalent to 1 mM β-CD
# Method: NPC1 cells were seeded on a 35 mm glass bottom dish (IWAKI) (cell count: 1.5×10^4 cells/dish), and incubated at 37° C. under a 5% CO2 atmosphere for one day, followed by the addition of the following samples and another 24-hour incubation.
# After the culturing, the cells were fixed with 4% paraformaldehyde (Wako) for 10 minutes, treated with 50 μg/ml digitonin solution (Tokyo Chemical Industry) for 5 minutes to permeabilize the plasma membrane, and blocked with 1% BSA/PBS solution for 30 minutes.
# The cells were then treated with Rabbit polyclonal anti-LC3 antibody (MBL) diluted to 1:200 with 1% BSA for one day at 4° C. After washing with PBS, the cells were stained with Alexa Fluor 488-conjugated goat anti-rabbit IgG (Abeam) (diluted to 1:1,000 with 1% BSA solution) for 30 minutes. After washing with PBS, the cells were observed by FluoView FV-10i (Olympus).
# In FIG. 16E, in order from the left, the results on the following are shown: “the case where NHDF cells were used and none of the samples were added”, “the case where NPC1 cells were used and HP-β-CD was added as a sample (amount added: 10 mM)”, “the case where NPC1 cells were used and […] was added as a sample (amount added: amount equivalent to 1 mM concentration of β-CD on HEE-SS-PRX)”.
# [12] = test system: GM1 gangliosidosis patient-derived dermal fibroblasts; experiment: LC3-II expression by Western blotting (Test Example 9); format: cell-based, human; conditions: HP-β-CD 10 mM, HEE-SS-PRX 1 mM
# Method: (5) GM1 gangliosidosis patient-derived dermal fibroblasts (obtained from Coriell Institute; number: GM03589)
# as §1, §2
# as §3, with “hour. […]” for “hour.”
# as §4
# [13] = NHDF or NPC1 cells, Baf A added instead of the sample
Compound,LC3 level (NPC1 cells [1]; [13]),p62 level (NPC1 cells [1]; [13]),Filipin fluorescence intensity (intracellular cholesterol) [2],Half maximal effective concentration (ED50) from dose-response curve for cholesterol accumulation (NPC1 cells [3]),Amount of intracellular cholesterol accumulation (total cholesterol/total protein) [4],Number of autolysosomes (NPC1 cells [5]),Number of autophagosomes (NPC1 cells [5]),"Expression level of p62 (NPC1 cells [1]; NPC1 cells, 24 hours, 10 mM)","Expression level of LC3-II (NPC1 cells [1]; NPC1 cells, 24 hours, HP-β-CD 0.1 to 10 mM, HEE-SS-PRX 0.01 to 1 mM)",Amount of cholesterol in cells [6],LC3-II level [7],Amount of cholesterol accumulated in each tissue [8],Survival [8],Co-localization rate of mRFP-LC3 and LAMP1 (NPC1 cells [9]),LC3-II level [10],Number of LC3-positive vesicles in a cell (NPC1 cells [11]),LC3-II level [12]
"CO/C1=C\C(C)=C\[C@@H](C)[C@@H](O)[C@@H](C)C/C(C)=C/C=C/[C@H](OC)[C@@H]([C@@H](C)[C@@H](O)[C@H](C)[C@@]2(O)C[C@@H](O)[C@H](C)[C@@H](C(C)C)O2)OC1=O [Baf A, Bafilomycin A1]",significant increases,significant increases,–,–,–,–,–,–,–,–,–,–,–,–,–,–,–
"COC[C@H]1O[C@@H]2O[C@H]3[C@H](O)[C@@H](OC)[C@@H](O[C@H]4[C@H](O)[C@@H](OC)[C@@H](O[C@H]5[C@H](O)[C@@H](OC)[C@@H](O[C@H]6[C@H](O)[C@@H](OC)[C@@H](O[C@H]7[C@H](O)[C@@H](OC)[C@@H](O[C@H]8[C@H](O)[C@@H](OC)[C@@H](O[C@H]1[C@H](O)[C@H]2OC)O[C@@H]8COC)O[C@@H]7COC)O[C@@H]6COC)O[C@@H]5COC)O[C@@H]4COC)O[C@@H]3COC [DM-β-CD, 2,6-dimethyl-β-cyclodextrin]",–,–,reduced,230 µM,capable of removing more cholesterol than HP-β-CD,–,–,–,–,–,–,–,–,–,–,–,–
Hydroxypropyl β-cyclodextrin [HP-β-CD],–,–,–,2590 µM,subtle reduction of cholesterol,no change in the number of autolysosomes,increase in the number of autophagosomes,significantly increased,increased the expression of LC3-II in a concentration dependent manner,the amount of cholesterol in cells decreases,increase in LC3-II,decreases the amount of cholesterol accumulated in each tissue,extends the survival,low,increase in LC3-II,further increased counts of LC3-positive vesicles,increase in LC3-II
